# Test results as given in patent US8586708B2, “Monovalent streptavidin compositions” (Massachusetts Institute of Technology, priority 2005, dated 2013).
# Where two headings read alike, the source gives them in different places.
# What was measured:
# [1] = Off-rate of 3H-biotin with cold biotin chase and precipitation; type: binding; conditions: 10 nM 3H-biotin, 1 μM streptavidin, 50 μM cold biotin, 37° C.; ± s.e.m.
# Experimental: (Green, N. M. Methods in Enzymol. 184: 51-67, 1990). Dissociation was then initiated by addition of cold biotin at a final concentration of 50 μM and time-points taken over 5 hours at 37° C. 50 μL aliquots were removed and added to 200 μL 0.2M ZnSO4 chilled on ice, followed by 200 μL 0.2 M NaOH. The protein precipitate was pelleted by centrifugation at 16,500 g for 5 min, and ^3H-biotin in the supernatant was measured by liquid scintillation counting. Data were plotted as ln(fraction bound) versus time, and fit to a straight line by linear regression. Dissociation rates were deduced from the slope of the line and the equation: ln(fraction bound)=−koff(t) where fraction bound=(total ^3H-biotin−free ^3H-biotin at timepoint)/(total ^3H-biotin−free ^3H-biotin before cold biotin chase).
# [2] = Stability of monovalent streptavidin to subunit exchange (SDS-PAGE); type: physicochemical; conditions: for A1D3 rearranged into D4: PBS
# Experimental: Methods described in the Methods section above herein were used for the following production and testing of monovalent streptavidin. Tests were performed to determine whether monovalent streptavidin would rearrange its subunit composition over time.
# [3] = Thermostability assay of tetramer (heat, SDS-PAGE); type: physicochemical; conditions: 3 min, PBS
# Experimental: 2.3 μM wild-type streptavidin or chimeric streptavidin in PBS was heated at the indicated temperature for 3 min in a PTC-200 PCR machine (MJ Research; Waltham, Mass.) and then immediately placed on ice (Bayer, E. A. et al. Electrophoresis 17: 1319-1324, 1996). Samples were mixed with 6× SDS-PAGE loading buffer and loaded onto a 16% polyacrylamide gel.
# [4] = test system: biotinylated AP-CFP-TM on HeLa cells; assay: Staining of biotinylated AP-CFP-TM on HeLa cells with Alexa Fluor 568 conjugates; type: cell-based; conditions: 10 μg/mL Alexa Fluor 568 conjugate, 10 min at 4° C.
# Experimental: (§1) Enzymatic biotinylation and imaging of HeLa transfectants were performed as previously described (Howarth, M. et al. Proc. Natl. Acad. Sci. USA 102: 7583-7588, 2005), except instead of 10 μM biotin and 1 mM ATP, we added 10 μM biotin-AMP (synthesized according to Coleman and Huang; Coleman, T. M. and Huang, F. Chem. Biol. 9: 1227-1236, 2002) to give equivalent biotinylation but minimizing the risk of purinoreceptor activation by ATP (Rathbone, M. P. et al., Prog. Neurobiol. 59: 663-690, 1999). […] Biotinylation of neurons was performed at day in vitro (DIV) 8 in Hanks' Balanced Salt Solution (HBSS) (Invitrogen) with 0.2 μM biotin ligase and 10 μM biotin-AMP for 5 min at 37° C. […] Neurons were washed with NeuroBasal media (Invitrogen) supplemented with B-27 (Invitrogen), 50 U/mL penicillin, 50 μg/mL streptomycin, and 0.2 mM L-glutamine and chased in the same medium for 0 or 2 hr at 37° C. Cells were then fixed in −20° C. methanol. […]
# Images of HeLa cells were collected on a Zeiss Axiovert 200M inverted epifluorescence microscope using a 40× oil-immersion lens and a MicroMAX CCD camera (Roper Scientific; Tucson, Ariz.). CFP (420DF20 excitation, 450DRLP dichroic, 475DF40 emission) and Alexa568 (560DF20 excitation, 585DRLP dichroic, 605DF30 emission) images were collected and analyzed using OpenLab software (Improvision; Lexington, Mass.). Fluorescence images were background-corrected. […] Images were scaled to 16 bits and analyzed in Northern Eclipse (Empix Imaging; Ontario, Canada) with user-written software. […] Results were then calculated in terms of clusters per micrometer of dendrite. For assessment of pre-synaptic terminals, clusters were determined as before and average grey levels of clusters were compared between transfected dendrites and untransfected dendrites within the same field of view. […] “n” represents the number of transfected neurons for which clusters were measured. […]
# [5] = test system: AP-neuroligin-1 on hippocampal neurons; assay: Clustering of biotinylated AP-neuroligin-1 on hippocampal neurons; type: cell-based, rat; conditions: for AP-neuroligin-1 clusters/μm: two hour incubation at 37° C., ± s.e.m., n=9; for AP-neuroligin-1 staining pattern: zero hours
# Experimental: HeLa cells were grown in Dulbecco's Modified Eagle Medium (DMEM) with 10% Fetal Calf Serum, 50 U/mL penicillin and 50 μg/mL streptomycin. HeLa stably expressing AP-CFP-TM or Ala-CFP-TM have been previously described (Howarth, M. et al. Proc. Natl. Acad. Sci. USA 102: 7583-7588, 2005). Dissociated primary neuronal cultures were prepared from Embryonic Day 18 or 19 (E18/19) rats and transfected with Lipofectamine 2000 at DIV6 as in Levinson et al. (Levinson, J. N. et al. J. Biol. Chem. 280: 17312-17319, 2005).
# as §1, with “methanol. There was no signal from wild-type streptavidin labeling if neurons were instead transfected with Ala-neuroligin-1 containing a point mutation in AP, confirming the specificity of labeling (Howarth, M. et al. Proc. Natl. Acad. Sci. USA 102: 7583-7588, 2005). To observe synapse formation, cells were biotinylated and stained with streptavidin as above, biotinylation and streptavidin staining was repeated at 6 hr, and then after 24 hr total chase cells were fixed in methanol.” for “methanol.”
# Images of HeLa cells were collected on a Zeiss Axiovert 200M inverted epifluorescence microscope using a 40× oil-immersion lens and a MicroMAX CCD camera (Roper Scientific; Tucson, Ariz.). CFP (420DF20 excitation, 450DRLP dichroic, 475DF40 emission) and Alexa568 (560DF20 excitation, 585DRLP dichroic, 605DF30 emission) images were collected and analyzed using OpenLab software (Improvision; Lexington, Mass.). Fluorescence images were background-corrected. […] Images were scaled to 16 bits and analyzed in Northern Eclipse (Empix Imaging; Ontario, Canada) with user-written software. […] Results were then calculated in terms of clusters per micrometer of dendrite. For assessment of pre-synaptic terminals, clusters were determined as before and average grey levels of clusters were compared between transfected dendrites and untransfected dendrites within the same field of view. […]
# [6] = Kd of D4 by 3H-biotin binding and protein precipitation
# Experimental: After incubation at room temperature for 20 hr, the protein was precipitated by adding 50 μL to 200 μL 0.2 M ZnSO4 followed by 200 μL 0.2 M NaOH. The protein precipitate was pelleted by centrifugation at 16,500 g for 5 min. The biotin bound by D4 was calculated from the total ^3H -biotin added minus the ^3H -biotin in the supernatant. The Kd was obtained using a nonlinear regression analysis (one-site binding hyperbola) with SigmaPlot (Systat Software; Point Richmond, Calif.).
# [7] = test system: biotinylated cells; assay: Binding to biotinylated cells; type: cell-based
# [8] = literature value; read-out: Kd for biotin; cited from earlier work
substance,measurement,setting,value
"A1D3: chimeric streptavidin tetramer with one Alive (wild-type, His6-tagged) subunit and three Dead (N23A, S27D, S45A) subunits [Tetramer A1D3]",off-rate from biotin,[1],6.14±0.19×10^−5 s^−1
same,A1D3 rearranged into D4,[2]; 37° C. incubation for one day,2%
same,Formation of A2D2 from subunit exchange,[2]; 37° C. one day or room temperature one week,not detected
same,A1D3 rearranged into D4,[2]; room temperature incubation for one week,3%
same,tetramer stability to heat denaturation,[3]; 100° C.,A significant fraction of A1D3 remained tetrameric
same,thermostability compared with wild-type streptavidin,[3]; various temperatures,little difference
same,Alexa staining of biotinylated AP-CFP-TM,[4],detected equally well
same,AP-neuroligin-1 clusters/μm,[5],0.087±0.021 clusters/μm
same,AP-neuroligin-1 staining pattern,[5],diffuse surface staining
"D4: streptavidin with 4 dead subunits (N23A, S27D, S45A; SEQ ID NO:3) [Tetramer D4]",biotin binding (in words),[6],negligible biotin binding
same,Kd,"[6]; 24 μM D4, 0-500 μM 3H-biotin, room temperature 20 hr, ± s.e.m.",918 ± 0.0117 µM
same,Alexa staining of biotinylated AP-CFP-TM,[4],no detectable staining
"N23A, S27D: double mutant streptavidin tetramer with one of the weakest reported affinities for biotin",binding to biotinylated cells,[7],still bound
same,Kd,[8],71 µM
wild-type streptavidin: wild-type core streptavidin tetramer with 4 biotin binding sites (SEQ ID NO:2) [reference compound],off-rate from biotin,[1],5.17±0.25×10^−5 s^−1
same,Alexa staining of biotinylated AP-CFP-TM,[4],detected equally well
same,AP-neuroligin-1 clusters/μm,[5],0.266±0.011 clusters/μm
same,AP-neuroligin-1 staining pattern,[5],diffuse surface staining
